Data set [1] in a line: Odour perception threshold. The settings on record: in air.
Data set [2] relates to KeratinoSens™ cell line (Luciferase gene under the control of the ARE-element of the gene AKR1C2). Nature of the data set: KeratinoSens assay for skin sensitization (luciferase gene induction). The data set is classed as cell-based. Conditions: for luciferase gene induction relative to the 1.5-fold threshold: 48 h incubation, 0.98 to 2000 μM, FIG. 1; for skin sensitization rating by the KeratinoSens assay: positive if EC1.5 below 1000 μM, viability above 70%, dose-response. The procedure:
The KeratinoSens™ cell line contains a stable insertion of a Luciferase gene under the control of the ARE-element of the gene AKR1C2. The optimization of this cell line and the standard method to test chemicals has been described in detail in Emter et. al. 2010 (Emter R., Ellis G., Natsch A., 2010 “Performance of a novel keratinocyte-based reporter cell line to screen skin sensitizers in vitro. Toxicol Appl Pharmacol 245, 281-290). Cells were grown for 24 h in 96-well plates. The medium was then replaced with medium containing the test chemical and the solvent Dimethylsulfoxide (DMSO) at a final level of 1%. Each compound was tested at 12 binary dilutions in the range from 0.98 to 2000 μM. In each repetition, three parallel replicate plates were run with this same set-up and a fourth parallel plate was prepared for cytotoxicity determination using an MTT assay. Cells were incubated for 48 h with the test agents, and then luciferase activity and cytotoxicity were determined. This full procedure was repeated at least three times for each chemical. For each chemical in each repetition and at each concentration, the gene induction compared to DMSO controls and the wells with statistically significant induction over the threshold of 1.5 (i.e. 50% enhanced gene activity) were determined. Furthermore the maximal fold-induction (Imax) and the EC1.5 value (concentration in μM for induction above the threshold) were calculated. Chemicals are rated as positive (i.e. likely skin-sensitizers) in the assay if the following three criteria are fulfilled (i) The EC1.5 value is below 1000 μM in all three repetitions or in at least 2 repetitions, (ii) at the lowest concentration with a gene induction above 1.5 fold (i.e. at the EC 1.5 determining value), the cellular viability is above 70% and (iii) there is an apparent overall dose-response for luciferase induction, which is similar between the repetitions.

The next data set deals with KeratinoSens™ cell line. Nature of the data set: Cytotoxicity determination using an MTT assay in the KeratinoSens assay. The data set is classed as cell-based. Conditions: 48 h, oxime: no significant cytotoxicity up to the value, Isoeugenol: cytotoxic above the value. The procedure:
The KeratinoSens™ cell line contains a stable insertion of a Luciferase gene under the control of the ARE-element of the gene AKR1C2. The optimization of this cell line and the standard method to test chemicals has been described in detail in Emter et. al. 2010 (Emter R., Ellis G., Natsch A., 2010 “Performance of a novel keratinocyte-based reporter cell line to screen skin sensitizers in vitro. Toxicol Appl Pharmacol 245, 281-290). Cells were grown for 24 h in 96-well plates. The medium was then replaced with medium containing the test chemical and the solvent Dimethylsulfoxide (DMSO) at a final level of 1%. Each compound was tested at 12 binary dilutions in the range from 0.98 to 2000 μM. In each repetition, three parallel replicate plates were run with this same set-up and a fourth parallel plate was prepared for cytotoxicity determination using an MTT assay. Cells were incubated for 48 h with the test agents, and then luciferase activity and cytotoxicity were determined. […] For each chemical in each repetition and at each concentration, the gene induction compared to DMSO controls and the wells with statistically significant induction over the threshold of 1.5 (i.e. 50% enhanced gene activity) were determined. Furthermore the maximal fold-induction (Imax) and the EC1.5 value (concentration in μM for induction above the threshold) were calculated. […]

Data set [3] can be described thus: Colour stability in fine fragrance (ethanol solution, indoor daylight). The settings on record: 1 and 0.5% wt/wt in 96% EtOH, glass vials, visual inspection. The data set is classed as physicochemical. The method, then:
A solution of the test compound (compound of formula (I) specified in the Table below) was prepared in perfumery grade ethanol (96% EtOH, 4% water) at 1 and 0.5% wt/wt. The solutions were placed in 2.5 ml transparent glass vials closed with plastic lids. The vials were placed behind a window exposed to indoor daylight. The colour of the solutions was inspected visually over a 1 month period.

Data set [4] in a line: Colour stability in bar soap. Type of data set: physicochemical. The settings on record: tallow toilet soap, 2% wt/wt of a 10% wt/wt solution in DPG, 1 month at 45° C. The method, then:
The extruded 24×8 mm soap string was cut into 8 cm pieces, which were placed in a thermostated oven for 1 month at 45° C. A control sample containing no fragrance was added to the stability test series.

Data set [5] is described as follows: Colour stability in colourless consumer base. Type of data set: physicochemical. The settings on record: dosed in a colourless consumer base at 0.02%, storage 4 weeks at 45 ° C. The procedure: By the term “colour stable” is meant that when dosed in a colourless consumer base at 0.02% and held under storage for 4 weeks at 45 ° C., bases containing the compounds of formula (I) remain colourless upon visual inspection. On the other hand, bases containing iso-eugenol and iso-eugenol “[…]” such as vanillin at the same concentration were discoloured, variously appearing to have yellowish, orange, […] or brown hues.

Regarding `CC(C)c1cccc(C(C)CC=O)c1` (centres unmarked) [3-(3-isopropylphenyl)butanal], the perception threshold in data set [1] is 0.07 ng/L.
The same measure, in the same setting: under `CC/C=C\CC/C=C/C=N/OC` [(1E,2E,6Z)-nona-2,6-dienal O-methyl oxime] stands 2.94 ng/L; under `CC/C=C\CC/C=C/C=O` [(2E,6Z)-nona-2,6-dienal], 0.06 ng/L.
Consider `CCOc1cc(C=NOC)ccc1O` [Cpd I (R1 = Et, R2 = Me), 3-ethoxy-4-hydroxybenzaldehyde O-methyl oxime], for which, in data set [2], the “luciferase gene induction relative to the 1.5-fold threshold” value was “did not induce luciferase activity above the 1.5-fold threshold”. In addition, in data set [2], the “skin sensitization rating by the KeratinoSens assay” value is listed as “non-sensitizing”. In addition, the “concentration above which cytotoxic (cell viability)” value in the data set on KeratinoSens™ cell line is over 1000 µM. Moreover, the “Colour of ethanol solution after 1 month” value is listed as “colourless” in data set [3] and “would have passed the requirements for colourless fine fragrance” in data set [3] (listed as compound I). Besides, in data set [4], the “colour of soap after one month” value is given as “remained as control”.
In data set [1], `CO/N=C/CC(C)c1cccc(C(C)C)c1` (centres unmarked) [E)-3-(3-isopropylphenyl)butanal O-methyl oxime] showed a perception threshold of 22.4 ng/L.
Regarding `CCOc1cc(C=O)ccc1O` [Ethyl Vanillin], the “Colour of ethanol solution after 1 month” value is listed as “yellow” in data set [3] and “unacceptable yellow colour” in data set [3] (listed as ethyl vanillin). The “colour of soap after one month” value in data set [4] is reported as “chocolate brown”.
`CC=Cc1ccc(O)c(OC)c1` [Isoeugenol]: in data set [2], the “luciferase gene induction relative to the 1.5-fold threshold” value is reported as “clearly induces the gene already in the lower micromolar range” and the “skin sensitization rating by the KeratinoSens assay” value is given as “sensitizing”. Moreover, the “concentration above which cytotoxic (cell viability)” value with KeratinoSens™ cell line is listed as “above 500 micromolar”. Besides, the “colour of consumer base upon visual inspection” value in data set [5] is given as “discoloured”.
`COc1cc(C=O)ccc1O` [Vanillin]: the “Colour of ethanol solution after 1 month” value is recorded as “yellow” in data set [3] and “unacceptable yellow colour” in data set [3] (listed as vanillin). Further, the “colour of consumer base upon visual inspection” value in data set [5] is “discoloured”.
